Test results reported in the NIST ThermoML archive (doi:10.1021/je9001416).
± gives the expanded uncertainty stated by the source.

Legend:
[1] = refractive index (Na D-line) (dimensionless); xn = mol fraction of the nth substance listed; details: 303.15 K, 101 kPa, Liquid, Standard Abbe refractometry
[2] = xn = mol fraction of the nth substance listed; details: 303.15 K, 101 kPa, Liquid
[3] = excess molar enthalpy (molar enthalpy of mixing); xn = mol fraction of the nth substance listed; details: 303.15 K, 101 kPa, Liquid, Flow calorimetry

CC(C)CC(C)(C)C [2,2,4-trimethylpentane] + CC(C)OC(C)C
x2 = 0
Details	mass density [kg/m3]	refractive index
[1]	–	1.3865 ± 0.00068
[2]	684.1 ± 0.31	–

CC(C)OC(C)C [diisopropyl ether] + CC(C)CC(C)(C)C
Details	excess molar enthalpy [kcal/mol]	mass density [kg/m3]	refractive index
[1], x1 = 0.0614	–	–	1.38505 ± 0.00068
[1], x1 = 0.1204	–	–	1.38372 ± 0.00068
[1], x1 = 0.2365	–	–	1.38115 ± 0.00068
[1], x1 = 0.3486	–	–	1.37862 ± 0.00068
[1], x1 = 0.4525	–	–	1.37619 ± 0.00068
[1], x1 = 0.5542	–	–	1.37383 ± 0.00068
[1], x1 = 0.6497	–	–	1.37172 ± 0.00068
[1], x1 = 0.7437	–	–	1.36963 ± 0.00068
[1], x1 = 0.8322	–	–	1.36774 ± 0.00068
[1], x1 = 0.9187	–	–	1.36596 ± 0.00068
[1], x1 = 0.9598	–	–	1.36512 ± 0.00068
[1], x1 = 1	–	–	1.36425 ± 0.00068
[2], x1 = 0.0614	–	685.5 ± 0.31	–
[2], x1 = 0.1204	–	686.92 ± 0.31	–
[2], x1 = 0.2365	–	689.82 ± 0.31	–
[2], x1 = 0.3486	–	692.78 ± 0.3	–
[2], x1 = 0.4525	–	695.6 ± 0.3	–
[2], x1 = 0.5542	–	698.54 ± 0.3	–
[2], x1 = 0.6497	–	701.45 ± 0.3	–
[2], x1 = 0.7437	–	704.5 ± 0.29	–
[2], x1 = 0.8322	–	707.61 ± 0.29	–
[2], x1 = 0.9187	–	710.76 ± 0.29	–
[2], x1 = 0.9598	–	712.33 ± 0.29	–
[2], x1 = 1	–	713.78 ± 0.29	–
[3], x1 = 0.0577	0.00932 ± 0.000311	–	–
[3], x1 = 0.1144	0.0178 ± 0.000454	–	–
[3], x1 = 0.1702	0.0253 ± 0.000621	–	–
[3], x1 = 0.2252	0.0316 ± 0.000741	–	–
[3], x1 = 0.2793	0.0368 ± 0.00086	–	–
[3], x1 = 0.3326	0.041 ± 0.000932	–	–
[3], x1 = 0.385	0.0441 ± 0.001	–	–
[3], x1 = 0.4367	0.0461 ± 0.00105	–	–
[3], x1 = 0.4875	0.0471 ± 0.00108	–	–
[3], x1 = 0.5376	0.0472 ± 0.00108	–	–
[3], x1 = 0.587	0.0462 ± 0.00105	–	–
[3], x1 = 0.6356	0.0443 ± 0.001	–	–
[3], x1 = 0.6835	0.0415 ± 0.000956	–	–
[3], x1 = 0.7307	0.038 ± 0.000884	–	–
[3], x1 = 0.7772	0.0337 ± 0.000789	–	–
[3], x1 = 0.823	0.0284 ± 0.000669	–	–
[3], x1 = 0.8682	0.0223 ± 0.00055	–	–
[3], x1 = 0.9128	0.0156 ± 0.000406	–	–
[3], x1 = 0.9567	0.00795 ± 0.000287	–	–

CC(C)OC(C)C [diisopropyl ether] + CCO
Details	excess molar enthalpy [kcal/mol]	mass density [kg/m3]	refractive index
[1], x1 = 0.0495	–	–	1.35854 ± 0.00068
[1], x1 = 0.0994	–	–	1.35989 ± 0.00068
[1], x1 = 0.2002	–	–	1.36147 ± 0.00068
[1], x1 = 0.2997	–	–	1.36232 ± 0.00068
[1], x1 = 0.4003	–	–	1.36325 ± 0.00068
[1], x1 = 0.5012	–	–	1.36309 ± 0.00068
[1], x1 = 0.6012	–	–	1.36285 ± 0.00068
[1], x1 = 0.7018	–	–	1.36225 ± 0.00068
[1], x1 = 0.804	–	–	1.36246 ± 0.00068
[1], x1 = 0.8996	–	–	1.36213 ± 0.00068
[1], x1 = 0.9505	–	–	1.36303 ± 0.00068
[1], x1 = 1	–	–	1.36425 ± 0.00068
[2], x1 = 0.0495	–	776.55 ± 0.24	–
[2], x1 = 0.0994	–	771.45 ± 0.24	–
[2], x1 = 0.2002	–	762.41 ± 0.25	–
[2], x1 = 0.2997	–	754.04 ± 0.26	–
[2], x1 = 0.4003	–	746.63 ± 0.26	–
[2], x1 = 0.5012	–	740.01 ± 0.27	–
[2], x1 = 0.6012	–	734.1 ± 0.27	–
[2], x1 = 0.7018	–	728.75 ± 0.28	–
[2], x1 = 0.804	–	723.6 ± 0.28	–
[2], x1 = 0.8996	–	718.96 ± 0.28	–
[2], x1 = 0.9505	–	716.37 ± 0.29	–
[2], x1 = 1	–	713.78 ± 0.29	–
[3], x1 = 0.0212	0.0024 ± 0.000203	–	–
[3], x1 = 0.0437	0.00524 ± 0.000232	–	–
[3], x1 = 0.0676	0.00902 ± 0.000287	–	–
[3], x1 = 0.0931	0.0136 ± 0.000382	–	–
[3], x1 = 0.1204	0.0189 ± 0.000478	–	–
[3], x1 = 0.1497	0.0251 ± 0.000621	–	–
[3], x1 = 0.1811	0.0321 ± 0.000765	–	–
[3], x1 = 0.215	0.0399 ± 0.000908	–	–
[3], x1 = 0.2516	0.0483 ± 0.0011	–	–
[3], x1 = 0.2912	0.0574 ± 0.00129	–	–
[3], x1 = 0.3343	0.0661 ± 0.00146	–	–
[3], x1 = 0.3813	0.0761 ± 0.00167	–	–
[3], x1 = 0.4328	0.086 ± 0.00189	–	–
[3], x1 = 0.4894	0.0958 ± 0.0021	–	–
[3], x1 = 0.5521	0.104 ± 0.00227	–	–
[3], x1 = 0.6217	0.11 ± 0.00239	–	–
[3], x1 = 0.6995	0.113 ± 0.00239	–	–
[3], x1 = 0.7871	0.105 ± 0.00229	–	–
[3], x1 = 0.8864	0.0783 ± 0.00172	–	–

CCO [ethanol] + CC(C)CC(C)(C)C
x1 = 1
Details	mass density [kg/m3]	refractive index
[1]	–	1.35733 ± 0.00068
[2]	781.99 ± 0.23	–

CC(C)CC(C)(C)C [2,2,4-trimethylpentane] + CCO
Details	mass density, [2] [kg/m3]	refractive index, [1]
x2 = 0	684.1 ± 0.31	1.3865 ± 0.00068
x2 = 0.0498	–	1.38633 ± 0.00068
x2 = 0.061	685.45 ± 0.31	–
x2 = 0.0992	–	1.38632 ± 0.00068
x2 = 0.1201	687.2 ± 0.31	–
x2 = 0.1997	–	1.38482 ± 0.00068
x2 = 0.2363	691.81 ± 0.3	–
x2 = 0.2998	–	1.38404 ± 0.00068
x2 = 0.3467	697.27 ± 0.3	–
x2 = 0.4005	–	1.38109 ± 0.00068
x2 = 0.453	703.74 ± 0.3	–
x2 = 0.499	–	1.37746 ± 0.00068
x2 = 0.5525	711.14 ± 0.29	–
x2 = 0.5999	–	1.37322 ± 0.00068
x2 = 0.6502	720.18 ± 0.28	–
x2 = 0.7	–	1.36851 ± 0.00068
x2 = 0.7431	730.88 ± 0.28	–
x2 = 0.8001	–	1.36386 ± 0.00068
x2 = 0.8322	744.05 ± 0.27	–
x2 = 0.8999	–	1.36145 ± 0.00068
x2 = 0.9176	760.58 ± 0.25	–
x2 = 0.9508	–	1.35789 ± 0.00068
x2 = 0.9599	770.78 ± 0.24	–

CCO [ethanol] + CC(C)OC(C)C
x2 = 0
Details	mass density [kg/m3]	refractive index
[1]	–	1.35733 ± 0.00068
[2]	781.99 ± 0.23	–
